In patent US5620955A, “Bombesin receptor antagonists and uses thereof” (Peptide Technologies Corporation, priority 1993, dated 1997):
Where two headings read alike, the source gives them in different places. Positions of bridges follow the written chain, without caps; N, C: chain ends. Non-standard residues stand in square brackets, D forms with d. Residues, ends and D or L forms follow the SMILES beside them. *: point of attachment. Chlorambucil = O=C(CCCc1ccc(N(CCCl)CCCl)cc1)*; NH(4-Br-phenethyl) = Brc1ccc(CCN*)cc1; X1 = O=C(CCCc1ccc(N(CCO)CCCl)cc1)*; 1Naphthoyl = O=C(c1cccc2ccccc12)*; Bz = O=C(c1ccccc1)*; NHPr = CCCN*

What was measured:
BBN receptor [1] = biological target: T1, BBN receptor (Homo sapiens, UniProt P30550); experiment: Inhibition of [125I]Tyr4-BBN binding to SCLC NCI-H345 membranes; details: for inhibition of BBN binding to SCLC membranes (in words): radiolabelled Tyr4-BBN
T1 construct: endogenous in cells; host or cells: NCI-H345 (human SCLC)
Experimental: (§1) Acinar cells from rat pancreas bind BBN and secrete amylase when treated with BBN. The ability of potential antagonists to bind to rat pancreatic acinar cells was examined by determining the ability of the compounds to inhibit the binding of radiolabelled BBN. […] Finally, antagonist activity of the compounds was determined by measuring the ability of compounds to prevent the release of amylase from cells in response to BBN. […] This cell line was also used to evaluate biological activities of potential antagonists derived from the structures of BBN and GRP. The binding of synthetic compounds to cellular membranes prepared from NCI-H345 was determined. The ability of potential antagonists to block the BBN-stimulated increase in cytosolic levels of Ca^++ was determined. Compounds showing inhibition were further tested to determine the effect on growth of two human SCLC cell lines in culture.
Potential antagonists were also evaluated for their ability to inhibit the binding of radiolabelled Tyr^4 -BBN to SCLC membranes and for their effects on BBN signal transduction in SCLC cells.

BBN receptor [2] = biological target: T1, BBN receptor; experiment: Cytosolic Ca++ assay in SCLC cell line NCI-H345; assay type: cell-based; design: key: antagonized (A); had no effect (--) on the ability of 10 nM BBN to; details: compound 10 μM; 10 nM BBN elevation of cytosolic Ca++
Experimental: SCLC cell line NCI-H345 was cultured for two days in medium containing 10^-8 M hydrocortisone, 5 μg/ml bovine insulin, 10 μg/ml human transferrin, 10^-8 M β-estradiol and 3×10^-8 M Na2 SeO3. The cells were harvested and washed, resuspended in medium containing 20 mM HEPES, pH 7.4, and loaded with 5 μM Fura 2 AM (Calbiochem) for 30 minutes. The cells were centrifuged at 150×g for 10 minutes to remove extracellular dye and resuspended and placed in a spectrofluorometer cell equipped with stirring and 37° C. heating. The emission was read at 510 nm with 340 excitation (Moody et al., Biochem. Biophys. Res. Commun. 147:189 (1987)). The response of compounds at 5 μM was measured initially as a screen and compared to that of 10 nM BBN. The response of varying concentrations of peptide (nM to μM) in the presence of 10 nM BBN was determined.

NCI-H345 = experiment: Clonagenic assay, colony formation of NCI-H345; assay type: cell-based, human; design: key to Growth: significantly reduced (R); had no effect (--) on th; details: compound 1 μM; clonal growth of a human tumor cell line
Experimental: The effect of 1 to 1000 nM concentration of peptides on growth of NCI-H345 colonies stimulated by 10 nM BBN was measured in the agarose cloning system (Mahoud et al., Cancer Res. 51:1798 (1991); Staley et al., Peptides 12:145-149 (1991)). […] On the day of the assay, cells were harvested, centrifuged and suspended in the buffer. The agarose cloning system consisted of 3 ml of 0.5% agarose in SIT medium with 5% fetal bovine serum in six well plates. To a top layer, consisting of 3 ml HITES medium in 0.3% agarose, the peptides at two times concentration and 6×10^4 single viable cells, were added. For each peptide concentration, triplicate wells were plated. After two weeks, 1 ml of 0.1% p-iodo-nitrotetrazolium violet was added, and after 16 hours at 37° C., the plates were screened for colony formation; the number of colonies larger than […] in diameter were counted using a Bausch and Lomb Omnicon image analysis system.

BBN receptor [3] = biological target: T2, BBN receptor (Rattus norvegicus, UniProt P52500); experiment: Stimulation of amylase release from rat pancreatic acinar cells by the compound alone (agonist test); assay type: cell-based
BBN receptor [4] = biological target: T2, BBN receptor; experiment: Inhibition of bombesin-stimulated amylase release from rat pancreatic acini; assay type: cell-based; details: half-maximal inhibition of bombesin-stimulated amylase release from acini; mean ± s.e.m.
Experimental: as §1
The incubation solution contained 1% albumin and the wash solution contained 0.2% albumin. The solution was equilibrated with 100% O2. Dispersed acini were suspended in 20 ml of solution. Samples of 1 ml were incubated in the presence of various concentrations of compounds in the presence of 1 nM bombesin. After the first incubation the samples were washed 4 times with wash solution at 4° C. The acini were then resuspended in fresh incubation buffer and incubated at 37° C. Amylase release was measured by the Phadebas reagent. Amylase secretion during a given incubation was expressed as the percentage of amylase present in the acini at the beginning of that incubation that was released into the extracellular medium.

BBN receptor [5] = biological target: T2, BBN receptor; experiment: Inhibition of 125I bombesin binding to rat pancreatic acinar cells; details: inhibition of 125I bombesin binding; IC50 divided by radioligand concentration
Experimental: Inhibition of equilibrium binding of ^125 I labeled bombesin to acinar membranes by the compounds was determined. The Kd was determined by dividing IC50 (the concentration of synthetic compound required to inhibit 50% of the specific binding of labelled BBN) by the concentration of radiolabeled peptide.

BBN receptor [6] = biological target: T2, BBN receptor; assay type: cell-based; details: PTC 821 1 μM
Experimental: (§2) Dispersed acinar cells from rat pancreas were prepared as indicated above.

CCK Receptor = biological target: T3, CCK Receptor (Rattus norvegicus, UniProt P30551); experiment: Specificity test, CCK-stimulated amylase secretion of rat pancreatic acinar cells after wash; details: PTC 821 1 μM
T3 sequence (P30551 1-444): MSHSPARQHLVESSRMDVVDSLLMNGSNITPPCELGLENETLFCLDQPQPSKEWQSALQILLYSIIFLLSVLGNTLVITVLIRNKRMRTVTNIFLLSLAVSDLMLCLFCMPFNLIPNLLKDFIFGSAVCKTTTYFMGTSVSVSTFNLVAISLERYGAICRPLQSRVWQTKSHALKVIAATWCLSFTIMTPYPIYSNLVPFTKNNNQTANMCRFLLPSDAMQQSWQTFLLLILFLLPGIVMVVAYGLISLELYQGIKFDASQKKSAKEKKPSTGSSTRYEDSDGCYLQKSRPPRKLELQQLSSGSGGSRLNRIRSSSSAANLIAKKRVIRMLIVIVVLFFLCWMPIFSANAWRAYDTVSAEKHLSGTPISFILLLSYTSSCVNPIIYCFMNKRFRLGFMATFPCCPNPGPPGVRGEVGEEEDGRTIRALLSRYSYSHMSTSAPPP
Experimental: as §2

[7] = 50% inhibition of specific [125I]Tyr4-BBN binding, NCI-H345, read-out: IC50

T1 sequence (P30550 whole entry): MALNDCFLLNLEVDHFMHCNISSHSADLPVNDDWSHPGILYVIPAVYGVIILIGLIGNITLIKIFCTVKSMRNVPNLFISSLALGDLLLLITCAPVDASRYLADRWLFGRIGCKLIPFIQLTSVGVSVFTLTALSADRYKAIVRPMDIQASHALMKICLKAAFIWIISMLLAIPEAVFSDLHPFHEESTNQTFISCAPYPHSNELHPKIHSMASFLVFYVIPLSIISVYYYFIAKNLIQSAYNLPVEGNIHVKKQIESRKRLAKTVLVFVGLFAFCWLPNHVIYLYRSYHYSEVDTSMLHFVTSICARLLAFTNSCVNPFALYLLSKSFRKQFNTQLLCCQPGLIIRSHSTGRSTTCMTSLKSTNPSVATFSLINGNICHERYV
T2 sequence (P52500 whole entry): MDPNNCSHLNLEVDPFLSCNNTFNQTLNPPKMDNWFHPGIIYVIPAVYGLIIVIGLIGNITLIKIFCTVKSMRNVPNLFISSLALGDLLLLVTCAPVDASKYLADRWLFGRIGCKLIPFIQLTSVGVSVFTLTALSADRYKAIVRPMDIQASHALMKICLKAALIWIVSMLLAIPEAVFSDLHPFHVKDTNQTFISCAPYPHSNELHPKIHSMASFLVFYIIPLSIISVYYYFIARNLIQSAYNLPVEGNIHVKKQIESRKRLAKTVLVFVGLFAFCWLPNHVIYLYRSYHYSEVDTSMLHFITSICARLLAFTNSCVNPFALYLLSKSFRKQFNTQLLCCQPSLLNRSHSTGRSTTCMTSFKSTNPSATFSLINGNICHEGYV

IC50 (BBN receptor [1]; [7]) [µM] | SMILES | Ca++ effect (BBN receptor [2]) | EC50 (BBN receptor [3]) [µM] | IC50 (BBN receptor [4]) [µM] | Kd (BBN receptor [5]) [µM] | IC50 (BBN receptor [1]) [µM] | other results
4 | CCCNC(=O)[C@H]1CCC(=O)NCCCC[C@H](NC(C)=O)C(=O)N[C@@H](Cc2c[nH]c3ccccc23)C(=O)N[C@@H](C)C(=O)N[C@@H](C(C)C)C(=O)N[C@H](C)C(=O)N[C@@H](Cc2c[nH]cn2)C(=O)N1 [PCT 812] (Ac-KWAV[dA]H[dE]-NHPr; lactam 1-7) | A |  |  |  |  | inhibition of BBN binding to SCLC membranes (in words) (BBN receptor [1]): only weak inhibition of BBN binding; Growth (NCI-H345): R
> 10 | CC(=O)N[C@H]1CCCCNC(=O)[C@H](CC(C)C)NC(=O)[C@H](Cc2c[nH]cn2)NC(=O)[C@H](C)NC(=O)[C@H](C(C)C)NC(=O)[C@H](C)NC(=O)[C@H](Cc2c[nH]c3ccccc23)NC(=O)[C@H](CCC(N)=O)NC(=O)[C@H](CC(N)=O)NC1=O [PTC 803] (Ac-KNQWAVAHL; lactam 1-C) | -- | > 3 | > 3 | > 3 |  | 
6 | CC(=O)N[C@@H]1CCCCNC(=O)[C@H](CC(C)C)NC(=O)[C@H](Cc2c[nH]cn2)NC(=O)[C@@H](C)NC(=O)[C@H](C(C)C)NC(=O)[C@H](C)NC(=O)[C@H](Cc2c[nH]c3ccccc23)NC(=O)[C@H](CCC(N)=O)NC(=O)[C@H](CC(N)=O)NC1=O [PTC 804] (Ac-[dK]NQWAV[dA]HL; lactam 1-C) | -- | > 3 | > 3 | > 3 |  | inhibition of BBN binding to SCLC membranes (in words) (BBN receptor [1]): only weak inhibition of BBN binding
> 10 | CC(=O)N[C@@H]1CCCCNC(=O)[C@H](CC(C)C)NC(=O)[C@H](Cc2c[nH]cn2)NC(=O)[C@H](C)NC(=O)[C@H](C(C)C)NC(=O)[C@H](C)NC(=O)[C@H](Cc2c[nH]c3ccccc23)NC(=O)[C@H](CCC(N)=O)NC(=O)[C@H](CC(N)=O)NC1=O [PTC 805] (Ac-[dK]NQWAVAHL; lactam 1-C) | -- | > 3 | > 3 | > 3 |  | 
 | CC(=O)N[C@H]1CCCCNC(=O)[C@H](CC(C)C)NC(=O)[C@H](Cc2c[nH]cn2)NC(=O)[C@@H](C)NC(=O)[C@H](C(C)C)NC(=O)[C@H](C)NC(=O)[C@H](Cc2c[nH]c3ccccc23)NC(=O)[C@H](CCC(N)=O)NC(=O)[C@H](CC(N)=O)NC1=O [PTC 806] (Ac-KNQWAV[dA]HL; lactam 1-C) |  | > 3 | > 3 | > 3 |  | 
 | CC(C)C[C@@H]1NC(=O)[C@H](Cc2c[nH]cn2)NC(=O)[C@@H](C)NC(=O)[C@H](C(C)C)NC(=O)[C@H](C)NC(=O)[C@H](Cc2c[nH]c3ccccc23)NC(=O)[C@H](CCC(N)=O)NC(=O)[C@H](CC(N)=O)NC(=O)[C@H](NC(=O)c2ccccc2)CCCCNC1=O [PTC 807] (Bz-[dK]NQWAV[dA]HL; lactam 1-C) | -- |  |  |  |  | 
 | CC(C)C[C@@H]1NC(=O)[C@H](Cc2c[nH]cn2)NC(=O)[C@@H](C)NC(=O)[C@H](C(C)C)NC(=O)[C@H](C)NC(=O)[C@H](Cc2c[nH]c3ccccc23)NC(=O)[C@H](CCC(N)=O)NC(=O)[C@H](CC(N)=O)NC(=O)[C@H](NC(=O)c2cccc3ccccc23)CCCCNC1=O [PTC 808] (1Naphthoyl-[dK]NQWAV[dA]HL; lactam 1-C) | -- |  |  |  |  | 
 | CCOC(=O)[C@H](CC(C)C)NC(=O)[C@H](Cc1c[nH]cn1)NC(=O)[C@@H](C)NC(=O)[C@@H](NC(=O)[C@H](C)NC(=O)[C@H](Cc1c[nH]c2ccccc12)NC(=O)[C@H](CCC(N)=O)NC(=O)[C@H](CC(N)=O)NC(=O)CCCc1ccc(N(CCO)CCCl)cc1)C(C)C [PTC 815B] (X1-NQWAV[dA]HL-OEt) |  |  |  |  | 0.045 | 
 | CCOC(=O)[C@H](CC(C)C)NC(=O)[C@H](Cc1c[nH]cn1)NC(=O)[C@@H](C)NC(=O)[C@@H](NC(=O)[C@H](C)NC(=O)[C@H](Cc1c[nH]c2ccccc12)NC(=O)[C@H](CCC(N)=O)NC(=O)[C@H](CC(N)=O)NC(=O)CCCc1ccc(N(CCCl)CCCl)cc1)C(C)C [PTC 815] (Chlorambucil-NQWAV[dA]HL-OEt) |  | > 3 | 0.0085 ± 0.0005 | 0.0107 ± 0.0034 | 0.035 | 
 | CC(=O)N[C@@H](Cc1c[nH]cn1)C(=O)N[C@@H](Cc1c[nH]c2ccccc12)C(=O)N[C@@H](C)C(=O)N[C@H](C(=O)N[C@H](C)C(=O)N[C@@H](Cc1c[nH]cn1)C(=O)NCCc1ccc(Br)cc1)C(C)C [PTC 820] (Ac-HWAV[dA]H-{NH(4-Br-phenethyl)}) | -- | > 3 | > 3 | > 3 | > 10 | Growth (NCI-H345): --
 | CCOC(=O)[C@H](CC(C)C)NC(=O)[C@H](Cc1c[nH]cn1)NC(=O)[C@@H](C)NC(=O)[C@@H](NC(=O)[C@H](C)NC(=O)[C@H](Cc1c[nH]c2ccccc12)NC(=O)[C@H](Cc1c[nH]cn1)NC(=O)CCCc1ccc(N(CCCl)CCCl)cc1)C(C)C [PTC 821] (Chlorambucil-HWAV[dA]HL-OEt) |  | > 3 | 0.0063 ± 0.0009 | 0.0032 ± 0.0005 | 0.008 | Percent BBN Receptor Activity Recovered (BBN receptor [6]; 1 Min post-wash): 5%; Percent BBN Receptor Activity Recovered (BBN receptor [6]; 30 Min post-wash): 18%; Percent BBN Receptor Activity Recovered (BBN receptor [6]; 60 Min post-wash): 25%; changes in the appearance of the cells indicative of toxicity (BBN receptor [6]; rat pancreatic acinar cells): no changes in the appearance of the cells; Percent CCK Receptor Activity Recovered (CCK Receptor; 1 Min post-wash): 107%; Percent CCK Receptor Activity Recovered (CCK Receptor; 30 Min post-wash): 115%; Percent CCK Receptor Activity Recovered (CCK Receptor; 60 Min post-wash): 89%

SMILES | IC50 (BBN receptor [1]; [7]) [µM] | Ca++ effect (BBN receptor [2]) | EC50 (BBN receptor [3]) [µM] | IC50 (BBN receptor [4]) [µM] | Kd (BBN receptor [5]) [µM] | IC50 (BBN receptor [1]) [µM] | other results
CC(C)C[C@@H]1NC(=O)[C@H](Cc2c[nH]cn2)NC(=O)[C@@H](C)NC(=O)[C@H](C(C)C)NC(=O)[C@H](C)NC(=O)[C@H](Cc2c[nH]c3ccccc23)NC(=O)[C@H](CCC(N)=O)NC(=O)[C@H](CC(N)=O)NC(=O)[C@H](Nc2ccc([N+](=O)[O-])cc2[N+](=O)[O-])CCCCNC1=O [PTC 809] | > 10 | -- | > 3 | > 3 | > 3 |  | 
